Experimental findings from article PMC9653339, “Revisiting the anticancer properties of phosphane(9-ribosylpurine-6-thiolato)gold(I) complexes and their 9H-purine precursors” (Journal of Biological Inorganic Chemistry, 2022) are described below.

Several values for one entry are separate records, joined by “and”; a condition that tells them apart may be missing. Equal values may be shown once. Read-outs that look alike come from different tables or passages of the source. Some results are limits rather than exact numbers.

For data set [1], the system named is 518A2 melanoma cells. Kind of data set: Lactate dehydrogenase (LDH) cytotoxicity assay. As to conditions: 518A2 cells, 10 µM, 24 h. The class given is cell-based, human. As to the method:
518A2 melanoma cells were seeded in 96-well flat bottom microtiter plates (Sarstedt) with 100 µL per well and a cell density of 0.05 × 10^6 cells per mL. Wells containing medium alone were additionally set for background measurement. Cells were allowed to grow overnight followed by substance treatment with 11.1 µL of tenfold concentrated test compound dilutions and further incubated for 24 h. As a positive control, 10 µL per well of lysis solution (9% Triton-X 100 in Millipore H2O) was added and incubated for 45 min to maintain maximum LDH release, the same amount was added to maximum release background correction wells containing only medium. After centrifugation (4 °C, 150×g, 5 min), 50 µL of the supernatant of each well was transferred on a fresh microtiter plate followed by addition of 50 µL LDH assay buffer (223 mg of 2-p-iodophenyl-3-p-nitrophenyl-5-phenyltetrazolium chloride, 57 mg of N-methyl-phenazonium methyl sulfate, 575 mg of […], 3.2 g of lactic acid in 480 ml 200 mM Tris–Cl, pH 8.0) per well. The plate was incubated in the dark for 10–30 min at room temperature. Then 50 µL stop solution (1 M acetic acid) was added per well and the absorbance was measured at 490 nm. The mean value of background wells with medium alone was subtracted from the negative control and test wells. Additionally, the mean value of volume correction wells was subtracted from maximum LDH release wells. The percentage of LDH release was calculated, with the maximum LDH release set as 100% and the negative control as 0% release. Means and SD were calculated from at least three independent experiments.

Data set [2] relates to human adult dermal fibroblasts HDFa. The data set is described as follows: MTT cell viability assay, HDFa. Type of data set: cell-based. As to conditions: 72 h, non-malignant fibroblasts. As to the method:
(§1) All complexes stable in solution were investigated for their anti-proliferative effect on nine human cancer cell lines, using the MTT-based cell viability assay. Cells were seeded in 96-well microtiter plates (Sarstedt) with a cell density of 0.05 × 10^6 cells per ml and 100 µL per well and incubated for 24 h. A dilution series of test compounds was added to the wells, ranging in twelve steps from 100 µM to 5 nM. As a control, equal amounts of DMSO were added. Treated cells were further incubated for 72 h. Then, 12.5 µL per well of MTT solution (0.05% in phosphate-buffered saline (PBS)) was added, followed by another 2 h of incubation. The plates were centrifuged, the medium was discarded and 25 µL per well of SDS solution in DMSO (10% SDS, 0.6% AcOH in DMSO) was added to dissolve the formazan. The plates were incubated for a further hour. Absorbances at 570 nm and 630 nm were measured using a plate reader (Tecan). Background absorbance (630 nm) was subtracted from the formazan signal (570 nm). The resulting absorbance was directly proportional to the amount of viable cells. The control was normalized to 100% viable cells and viability of cells treated with test compounds was calculated accordingly. IC50 values were calculated based on a sigmoidal fit model using GraphPad Prism. Means and SD were calculated from at least four independent experiments.
In general terms: Tetrazolium assays rely on reduction of a dye to a coloured formazan, in cell work by metabolically active cells.

Data set [3] relates to MCF-7 mamma carcinoma cells. The data set is described as follows: MTT cell viability assay, MCF-7. The class given is cell-based, human. As to the method: as §1
Data set [4] relates to EA.hy926 endothelial hybrid cells. Kind of data set: MTT cell viability assay, EA.hy926. Type of data set: cell-based, human. As to the method: as §1
Data set [5] deals with 518A2 melanoma cells. Kind of data set: Influence on the cell cycle (PI flow cytometry). The class given is cell-based, human. As to conditions: 518A2 cells, 24 h, IC50 concentrations (5: approximately twice its IC50). As to the method:
The complexes were investigated for their effect on the cell cycle. Cells were seeded in 6-well plates (Sarstedt) with 3 mL per well and a cell density of 0.05 × 10^6 cells per mL and incubated for 24 h. […] The supernatant of each sample was transferred into a separate tube on ice, the cell monolayer was rinsed once with PBS and the cells were harvested using trypsin, and also transferred into the tube. The cells were pelleted (4 °C, 150 × g, 5 min), re-suspended in 1 mL ice cold EtOH (70%) and stored for at least 1 h at 4 °C. Prior to propidium iodide (PI) staining, the cells were centrifuged (150×g, 5 min), the supernatant was discarded and the cells were layered with 1 mL PBS for 5 min. The cells were centrifuged again and the pellet was re-suspended in 200 µL of PI staining solution (50 µg/mL PI, 1% sodium citrate in PBS) containing 1 µL RNase (10 mg/mL stock solution) and incubated in dark for 30 min at 37 °C. The cell cycle distribution was assessed by flow cytometry (Beckmann Coulter). Means and SD were calculated from at least three independent experiments.
On the technique in general: In flow cytometry, cells or beads pass a laser one at a time.

The subject of data set [6] is mdr MCF-7^Topo mamma carcinoma cells. Kind of data set: MTT cell viability assay, MCF-7Topo. Type of data set: cell-based, human. As to conditions: 72 h. As to the method:
as §1

Data set [7] concerns tubulin. Kind of data set: Tubulin polymerisation assay. The class given is biochemical. As to conditions: in vitro, turbidity at 340 nm. As to the method:
First, 2 × polymerization buffer was prepared, which consisted of 385 µL Brinkley renaturing buffer 80 (BRB 80), 100 µL glycerol, and 15 µL GTP (100 mM). 50 µL of freshly prepared 2 × polymerization buffer was added to µClear black well plates. Subsequently, 11.1 µL each of a tenfold substance pre-dilution in BRB80 was added. In addition, a combretastatin A-4 positive control was prepared analogously. After rapid addition of 50 µL of tubulin per well, the measurement was started on the plate reader at 340 nm. The plate reader measured at 20 s intervals for at least 120 min until the measurement plateau was reached. For evaluation, OD 340 nm was plotted versus time.

Data set [8] deals with 518A2 melanoma cells. Kind of data set: MTT cell viability assay, 518A2. The class given is cell-based, human. As to the method:
as §1

Data set [9] relates to U-87 glioblastoma cells. The data set is described as follows: MTT cell viability assay, U-87. As to conditions: 72 h. Type of data set: cell-based, human. As to the method: as §1
In data set [10] the test system is mdr KB-V1^Vbl cervix carcinoma cells. The data set is described as follows: MTT cell viability assay, KB-V1 (with and without verapamil). The class given is cell-based, human. As to conditions: 72 h, without verapamil. As to the method:
as §1

The term IC50 denotes the concentration needed to halve the response being measured. On to `Sc1ncnc2nc[nH]c12` [6-MP, 6-Mercaptopurine, reference compound], for which, in [1], the “LDH release (necrosis)” value was “no enzyme could be detected”. Further, the IC50 in data set [2] (Homo sapiens, HDFa) is above 50000 nM; in data set [3] (Homo sapiens, MCF7, 72 h) it was 3700 ± 260 nM; in data set [4] (Homo sapiens, EA.hy 926, 72 h), 920 ± 40 nM; in data set [6] (Homo sapiens, MCF7/Topo), 6400 ± 460 nM; in data set [8] (Homo sapiens, 518A2, 72 h) it was 11000 ± 1100 nM; in data set [9] (Homo sapiens), 1400 ± 130 nM. This molecule also registered an IC50 in data set [10] (Homo sapiens, KB-V1/Vbl) of 1600 ± 100 nM. Moreover, in [5], the “Effect on the cell cycle” value is on record as “accumulated in G1-phase”. The “Inhibition of tubulin polymerization” value in [7] was “inhibited tubulin polymerization”.
Turning to `Nc1nc2nc[nH]c2c(=S)[nH]1` [6-TG, 6-thioguanine, reference compound], in data set [1], the “LDH release (necrosis)” value was “no enzyme could be detected”. In addition, the half-maximal inhibitory concentration (IC50) was above 50000 nM in data set [2] (Homo sapiens, HDFa); 980 ± 80 nM in [3] (Homo sapiens, MCF7, 72 h); 250 ± 20 nM in data set [4] (Homo sapiens, EA.hy 926, 72 h); 900 ± 90 nM in data set [6] (Homo sapiens, MCF7/Topo); 5200 ± 450 nM in data set [8] (Homo sapiens, 518A2, 72 h); 1700 ± 80 nM in [9] (Homo sapiens). In data set [10] (Homo sapiens, KB-V1/Vbl), this molecule came in with an IC50 of 500 ± 50 nM. Also, the “Effect on the cell cycle” value in data set [5] was “accumulated in G1-phase”. Moreover, in data set [7], the “Inhibition of tubulin polymerization” value is reported as “inhibited tubulin polymerization”.
For the molecule `CC(=O)OC[C@H]1O[C@@H]([S-])[C@H](OC(C)=O)[C@@H](OC(C)=O)[C@@H]1OC(C)=O.CCP(CC)CC.[Au+]` [Auranofin, auranofin], the “LDH release (necrosis)” value in [1] is recorded as “no enzyme could be detected”. Moreover, the half-maximal inhibitory concentration (IC50) in [3] (72 h, read-out: IC50 MCF7) amounted to 2200 ± 220 nM; in data set [4] (72 h), 820 ± 40 nM; in data set [6] (read-out: IC50 MCF7^Topo), 4700 ± 430 nM; in [9], 2400 ± 240 nM; in data set [10], 1900 ± 70 nM. For the same molecule, the “Effect on the cell cycle” value in [5] was “arrested mainly in S-phase”. The “Inhibition of tubulin polymerization” value in data set [7] is reported as “microtubule-destabilizing agent”.
On to `OC[C@H]1O[C@@H](n2cnc3c([S][Au][PH](c4ccccc4)(c4ccccc4)c4ccccc4)ncnc32)[C@H](O)[C@@H]1O` [Complex 5, (1,7-Dihydro-6H-purine-9-β-D-ribofuranosyl-6-thiolato) (triphenylphosphane) gold(I)], for which, in data set [1], the “LDH release (necrosis)” value is reported as “no enzyme could be detected”. In addition, the IC50 in [2] was found to be 36000 ± 1700 nM; in [3] (72 h, read-out: IC50 MCF7), 2400 ± 220 nM; in data set [4] (72 h), 340 ± 30 nM; in data set [6] (read-out: IC50 MCF7^Topo), 1700 ± 140 nM; in data set [8] (72 h), 2600 ± 250 nM; in [9], 1700 ± 150 nM. Moreover, the “Effect on the cell cycle” value in [5] was “both a G1-phase arrest and an S-phase arrest”. Moreover, the “Inhibition of tubulin polymerization” value in data set [7] is “merely slight inhibition of tubulin polymerization”.
For `Nc1nc([S][Au][PH](c2ccccc2)(c2ccccc2)c2ccccc2)c2ncn([C@@H]3O[C@H](CO)[C@@H](O)[C@H]3O)c2n1` [Complex 6, (2-Amino-1,7-dihydro-6H-purine-9-β-D-ribofuranosyl-6-thiolato) (triphenylphosphane) gold(I)], in [1], the “LDH release (necrosis)” value was “no enzyme could be detected”. The IC50 is 36000 ± 3000 nM in [2]; 5800 ± 570 nM in data set [3] (72 h, read-out: IC50 MCF7); 3800 ± 130 nM in [4] (72 h); 3200 ± 290 nM in data set [6] (read-out: IC50 MCF7^Topo); ~3500 nM and 3500 nM in data set [8] (72 h); 1200 ± 120 nM in data set [9]. It took 910 ± 90 nM to reach half-maximal inhibition in [10] (IC50). Also, in data set [7], the “Inhibition of tubulin polymerization” value is given as “merely slight inhibition of tubulin polymerization”.
